Source: EP4279069A1, “A PHARMACEUTICAL COMPOSITION FOR USE IN PREVENTING AND/OR REDUCING HEPATOTOXICITY INDUCED BY ACETAMINOPHEN” (priority 2022, dated 2023)
Values joined by “and” are separate entries in the source; they are usually repeats but may differ in a detail not shown here. Equal entries are not always repeated.

Experiments:
rats = assay: Toxicology of acetaminophen and/or nefopam: ALAT and ASAT by UV test according to IFCC recommendations; details: for ALAT / ASAT: after 4 weeks, mean, groups 2, 3, 5: P 505 for 4 days then 645 for 24 days and/or N 30 for 4 days then 38.6 for 24 days (mg/kg/day); for transaminase levels: rats, substance alone, after 4 weeks of treatment, statement in text
Protocol: Liver function in rats is measured and the progression of liver damage is monitored to screen for liver disease in invasive and non-invasive manner. Alanine aminotransferase (ALAT) and aspartate aminotransferase (ASAT), two markers of hepatotoxicity was assayed using UV test according to IFCC recommendations.
Control animals (group 1) received the vehicle only (1% Tween 80 in 0.5% Methylcellulose in water).

[1] = median value; cited from earlier work
[2] = cited from earlier work
[3] = system: acetaminophen-induced acute liver injury; assay: Assessment of acute hepatotoxicity: histopathological assessment of liver lesions (H&E, necrosis grade); type: in vivo, mice CD-1
Protocol: They received the products intraperitoneally (i.p.).
Histopathological assessment of liver lesions: The histopathological lesions in the liver were evaluated as follows: The collected tissues were processed with standard procedures and embedded in paraffin. The embedded tissues were sectioned into 4 µm thick sections using a microtome. These tissue sections were stained with hematoxylin and eosin (H&E) according to standard techniques and examined by a light microscope.
The severity of necrotic lesions in liver parenchyma was determined. Grade 0: No pathological change Grade 1: Presence of degenerated hepatocytes with only rare foci of necrosis Grade 2: Small area of mild centrilobular necrosis around the central vein Grade 3: Area of mild centrilobular necrosis severer than Grade 2 Grade 4: Centrilobular necrosis severer than Grade 3
(§1) Protocol: 24h after treatments, animals were euthanized. Plasma and liver were sampled.

[4] = system: acetaminophen-induced acute liver injury; assay: Assessment of acute hepatotoxicity: serum biomarkers of liver injury (ALAT, ASAT), spectrophotometric assay; details: for ALAT / ASAT: i.p., 24h after treatment, individual mice
Protocol: 192 male mice CD-1 (Janvier, France) (12 mice per group) with an age of 7-10 weeks were used. They received the products intraperitoneally (i.p.).
Determination of serum biomarkers: Liver injury was evaluated by measuring the serum levels of alanine aminotransferase (ALAT), and aspartate aminotransferase (ASAT) using a spectrophotometric assay method.
as §1
Statistical analysis: Results were expressed as means ± standard error of mean (S.E.M.).

[5] = Vehicle + 200 mg/kg NAC, 200 mg/kg
[6] = nefopam at doses of 17.65 and 35.29 mg/kg (i.p.) co-administered with acetaminophen, mice
[7] = Vehicle + 1.1 mg/kg nefopam, 1.1 mg/kg
[8] = Vehicle + 2.2 mg/kg nefopam, 2.2 mg/kg
[9] = Vehicle + 4.4 mg/kg nefopam, 4.4 mg/kg

CC(=O)Nc1ccc(O)cc1 [Acetaminophen, N-acetyl-p-aminophenol]
ALAT (rats; female rats): 49 U/L
ASAT (rats; female rats): 101 U/L
ALAT (rats; male rats): 59 U/L
ASAT (rats; male rats): 110 U/L
transaminase levels (rats): increases transaminase levels
transaminase levels (rats; listed as acetaminophen): increase in transaminase levels
median effective analgesic dose [1]: 500 mg
half-life ([2]; individuals without liver injury): 2 to 3 h
bioavailability (drug being absorbed) ([2]; taken orally): ~80%
metabolized through the activity of CYPs (primarily CYP2E) to N-acetyl-p-benzoquinoneimine (NAPQI) ([2]; therapeutic doses): ≤ 5%

CC(=O)N[C@@H](CS)C(=O)O [NAC, N-acetylcysteine]
Score ([3]; Vehicle + 200 mg/kg NAC, i.p., 24h after treatment, individual mice): 0
ALAT [4, 5]: 41 U/L (2×) and 26 U/L and 27 U/L and 30 U/L and 58 U/L and 31 U/L and 28 U/L and 14 U/L and 29 U/L and 71 U/L and 51 U/L
ASAT [4, 5]: 292 U/L and 101 U/L and 114 U/L and 184 U/L and 320 U/L and 160 U/L and 360 U/L and 107 U/L and 283 U/L and 723 U/L and 170 U/L and 183 U/L

CN1CCOC(c2ccccc2)c2ccccc2C1 (stereo not shown) [nefopam, 5-methyl-1-phenyl-1,3,4,6-tetrahydro-2,5-benzoxazo-cine]
ALAT (rats; female rats): 31 U/L
ASAT (rats; female rats): 96 U/L
ALAT (rats; male rats): 35 U/L
ASAT (rats; male rats): 83 U/L
histological score ([3]; mouse, in vivo): 0
histological score [3, 6]: significantly reduced
ALAT [4, 7]: 17 U/L and 29 U/L and 55 U/L (2×) and 51 U/L and 23 U/L and 31 U/L and 45 U/L and 19 U/L and 49 U/L and 27 U/L and 28 U/L
ASAT [4, 7]: 98 U/L and 266 U/L and 180 U/L and 152 U/L and 193 U/L and 181 U/L and 136 U/L and 426 U/L and 110 U/L and 97 U/L and 210 U/L
ALAT [4, 8]: 30 U/L (2×) and 19 U/L (2×) and 52 U/L and 152 U/L and 24 U/L and 27 U/L and 35 U/L and 60 U/L and 57 U/L and 25 U/L
ASAT [4, 8]: 111 U/L and 395 U/L and 59 U/L and 325 U/L and 119 U/L and 118 U/L and 221 U/L and 129 U/L and 269 U/L and 785 U/L and 148 U/L
ALAT [4, 9]: 55 U/L and 25 U/L and 22 U/L and 43 U/L (2×) and 51 U/L and 26 U/L and 28 U/L and 42 U/L and 24 U/L and 71 U/L and 23 U/L
ASAT [4, 9]: 541 U/L and 128 U/L and 111 U/L and 93 U/L and 151 U/L and 79 U/L and 89 U/L and 531 U/L and 71 U/L and 466 U/L
acetaminophen-induced hepatotoxicity ([4]; co-administered with acetaminophen 300 mg/kg i.p., mice): able to abolish acetaminophen-induced hepatotoxicity
ASAT and ALAT plasma concentration ([4]; mouse, in vivo): did not influence
ASAT and ALAT elevations [4, 6]: significantly reduced
